This is an account of results in patent US8895585B2, “Nicotinamide derivative or salt thereof” (FUJIFILM Corporation, priority 2010, dated 2014).

Bounds are passed on as bounds.

The first experiment deals with T1, glutathione S-transferase (GST)-fused full-length human Syk protein (Homo sapiens, UniProt P43405).
T1 construct: (GST)-fused full-length human Syk protein; GST (glutathione S-transferase); purchased Carna Biosciences
The experiment is described as follows: Syk enzyme assay. The class given is biochemical. The settings on record: Syk enzyme assay, Test Example 1; read-out: IC50 of Syk-inhibitory activity. The gist of the method:
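Baculovirus-expressed enzyme (1.2 ng) was preincubated with compound in HEPES pH 7.0/MgCl2/DTT buffer, 2 min shaking then 13 min at room temperature. Biotin-EDPDYEWPSA-NH2 (0.4 μM final) and ATP (27 μM final) were added for 40 min at room temperature. EDTA stop, streptavidin-XL/PT66-K TR-FRET at 615/665 nm gave IC50.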
In general, IC50 refers to the point on the concentration scale where inhibition reaches its midpoint. Turning to `CN(C)c1ccc(Nc2nc(NC3CCCCC3N)c(F)cc2C(N)=O)cn1` (stereo not shown) [Example 002-074], the concentration for half-maximal inhibition (IC50) fell in the range of 50 to 100 nM. Consider `CCCOc1ccc2cc(Nc3nc(NC4CCCCC4N)c(F)cc3C(N)=O)ccc2n1` (stereo not shown) [Example 002-104], for which the IC50 is under 10 nM.

On to `Cc1ncc(Nc2nc(NC3CCCCC3N)c(F)cc2C(N)=O)cc1-c1ccccc1` (stereo not shown) [Example 002-023], for which the 50% inhibitory concentration (IC50) was under 10 nM.

Regarding `CC(C)C[C@@H](Nc1nc(Nc2ccc3c(cnn3CCF)c2)c(C(N)=O)cc1F)[C@H](C)N` [Example 006-419, 6-(((2S,3R)-2-amino-5-methylhexan-3-yl)amino)-5-fluoro-2-((1-(2-fluoroethyl)-1H-indazol-5-yl)amino)nicotinamide], the IC50 was under 10 nM. As for `CNc1nc(Nc2cc(OC)cc(OC)c2)c(C(N)=O)cc1F` [Example 022-008], the IC50 is 100 to 1000 nM. `CCOc1ncc(Nc2nc(N[C@@H]3CCCC[C@@H]3N)c(F)cc2C(N)=O)cc1Cl` [Example 006-570, 6-(((1R,2S)-2-aminocyclohexyl)amino)-2-((5-chloro-6-ethoxypyridin-3-yl)amino)-5-fluoronicotinamide]: the concentration for half-maximal inhibition (IC50) lay in the range of 10 to 50 nM. On to `C[C@@H]1CN(c2cncc(Nc3nc(N[C@@H]4CCCC[C@@H]4N)c(F)cc3C(N)=O)c2)C[C@H](C)O1` [Example 004-180], for which the 50% inhibitory concentration (IC50) is 10 to 50 nM. Same read-out and setting: as for `NC(=O)c1cc(F)c(NC2CCCCC2N)nc1Nc1cncc(NC(=O)c2csc3ccccc23)c1` (stereo not shown) [Example 027-039], the figure is 10 to 50 nM; as for `Cc1ccc(S(=O)(=O)Nc2cccc3cc(Nc4nc(NC5CCCC[C@@H]5N)c(F)cc4C(N)=O)cnc23)cc1` (stereo partly drawn) [Example 41-4, 6-(cis-2-aminocyclohexylamino)-5-fluoro-2-((8-(4-methylphenylsulphonamide)quinolin-3-yl)amino)nicotinamide], 50 to 100 nM. Still for that read-out and setting: in the case of `NC(=O)c1cc(F)c(NC2CCCCC2N)nc1Nc1cncc(NC(=O)c2ccsc2)c1` (stereo not shown) [Example 027-032] it was under 10 nM; in that of `COCC(C)Oc1ccc2ccc(Nc3nc(NC4CCCCC4N)c(F)cc3C(N)=O)cc2n1` (stereo not shown) [Example 002-091], under 10 nM. The same measure, in the same setting: as for `NC(=O)c1cc(F)c(NC2CCCCC2N)nc1Nc1ccnc(-c2cccc3cccnc23)c1` (stereo not shown) [Example 002-182], the figure is 100 to 1000 nM; as for `NC(=O)c1cc(F)c(N[C@@H](C(N)=O)c2ccccc2)nc1Nc1ccc2ncsc2c1` [Example 012-004], 10 to 50 nM; as for `NC(=O)c1cc(F)c(N[C@H](c2ccccc2)[C@@H](N)c2ccccc2)nc1Nc1cccc(-n2nccn2)c1` (racemic) [Example 006-138, 2-((3-(2H-1,2,3-triazol-2-yl)phenyl)amino)-6-(((1R,2S)-2-amino-1,2-diphenylethyl)amino)-5-fluoronicotinamide 2-((3-(2H-1,2,3-triazol-2-yl)phenyl)amino)-6-(((1S,2R)-2-amino-1,2-diphenylethyl)amino)-5-fluoronicotinamide], 10 to 50 nM.

For the compound `NC(=O)c1cc(F)c(NCc2ccc[nH]2)nc1Nc1ccc2ncccc2c1` [Example 012-003], the half-maximal inhibitory concentration (IC50) fell in the range of 100 to 1000 nM. On the same count and under the same terms, as for `Cc1cncc(Nc2nc(N[C@H](c3ccccc3)[C@@H](N)c3ccccc3)c(F)cc2C(N)=O)c1` (racemic) [Example 006-140, 6-(((1R,2S)-2-amino-1,2-diphenylethyl)amino)-5-fluoro-2-((5-methylpyridin-3-yl)amino)nicotinamide 6-(((1S,2R)-2-amino-1,2-diphenylethyl)amino)-5-fluoro-2-((5-methylpyridin-3-yl)amino)nicotinamide], the figure is 50 to 100 nM; as for `NC(=O)c1cc(F)c(N[C@@H]2CCCC[C@@H]2N)nc1Nc1cnc2c(NC(=O)c3ccccn3)cccc2c1` (relative stereo) [Example 41-10, 6-(cis-2-aminocyclohexylamino)-5-fluoro-2-((8-picolinamidequinolin-3-yl)amino)nicotinamide], under 10 nM. As to `NC(=O)c1cc(F)c(NC2CCCCC2N)nc1Nc1cncc(-c2cccc3cnccc23)c1` (stereo not shown) [Example 002-179], the 50% inhibitory concentration (IC50) lay in the range of 50 to 100 nM.

On to `NC(=O)c1cc(F)c(NCc2ccncc2)nc1Nc1ccc2ncccc2c1` [Example 012-018], for which the 50% inhibitory concentration (IC50) lay in the range of 100 to 1000 nM. For `CCC[C@@H](Nc1nc(Nc2ccc(N3CCOCC3)nc2)c(C(N)=O)cc1F)[C@H](C)N` [Example 006-246, 6-(((2S,3R)-2-aminohexan-3-yl)amino)-5-fluoro-2-((6-mopholinopyridin-3-yl)amino)nicotinamide], the half-maximal inhibitory concentration (IC50) lay in the range of 10 to 50 nM. Still for that read-out and setting: as for `COc1cccc(-c2cc(Nc3nc(NC4CCCCC4N)c(F)cc3C(N)=O)ccn2)c1` (stereo not shown) [Example 002-183], the figure is under 10 nM; as for `NC(=O)c1cc(F)c(N[C@@H]2CCCC[C@@H]2N)nc1Nc1cc(O)c2ncccc2c1` (relative stereo) [Example 042-000], under 10 nM; as for `Cn1cc2cccc(Nc3nc(N[C@@H]4CCCC[C@@H]4N)c(F)cc3C(N)=O)c2n1` (relative stereo) [Example 006-074, 6-(cis-2-aminocyclohexylamino)-5-fluoro-2-((2-methyl-2H-indazol-7-yl)amino)nicotinamide], 100 to 1000 nM. The same measure, in the same setting: in the case of `NC(=O)c1cc(F)c(N[C@@H]2CCCC[C@@H]2N)nc1Nc1cnc2c(O)cccc2c1` (relative stereo) [Example 004-124, 6-(cis-2-aminocyclohexylamino)-5-fluoro-2-((8-hydroxyquinolin-3-yl)amino)nicotinamide] it was under 10 nM; in that of `COc1cc(Nc2nc(NC3CCCC3C(N)=O)c(F)cc2C(N)=O)cc(OC)c1` (stereo not shown) [Example 033-007], 100 to 1000 nM. On the same count and under the same terms, as for `Cc1cc(C)cc(Nc2nc(NCCN)c(F)cc2C(N)=O)c1` [Example 008-002], the figure is 10 to 50 nM. As to `COCCOc1ncc(Nc2nc(N[C@@H]3CCCC[C@@H]3N)c(F)cc2C(N)=O)cc1-n1ccnn1` [Example 006-518, 6-(((1R,2S)-2-aminocyclohexyl)amino)-5-fluoro-2-((6-(2-methoxyethoxy)-5-(1H-1,2,3-triazol-1-yl)pyridin-3-yl)amino)nicotinamide], the IC50 is 50 to 100 nM.

In the case of `Cn1cc(Nc2nc(N[C@@H]3CCCC[C@@H]3N)c(F)cc2C(N)=O)cc(-n2ccnn2)c1=O` (relative stereo) [Example 006-428, 6-((cis-2-aminocyclohexyl)amino)-5-fluoro-2-((1-methyl-6-oxo-5-(1H-1,2,3-triazol-1-yl)-1,6-dihydropyridin-3-yl)amino)nicotinamide], the IC50 was in the range of 50 to 100 nM. In the case of `CCc1ncc(Nc2nc(N[C@@H]3CCCC[C@@H]3N)c(F)cc2C(N)=O)cc1Cl` [Example 006-568, 6-(((1R,2S)-2-aminocyclohexyl)amino)-2-((5-chloro-6-ethylpyridin-3-yl)amino)-5-fluoronicotinamide], the IC50 lay within 50 to 100 nM. Still for that read-out and setting: as for `NC(=O)c1cc(F)c(N[C@@H]2CCCC[C@@H]2N)nc1Nc1cc(C(F)(F)F)cc2c1ccn2CCN1CCOCC1` [Example 004-087], the figure is under 10 nM.

With `C[C@H](N)[C@H](C)Nc1nc(Nc2ccc3ncccc3c2)c(C(N)=O)cc1F` [Example 006-181, 6-(((2S,3S)-3-aminobutan-2-yl)amino)-5-fluoro-2-((quinolin-6-yl)amino)nicotinamide], the half-inhibitory concentration (IC50) is 100 to 1000 nM. On the same count and under the same terms, in the case of `CCc1nc2ccc(Nc3nc(NC4CCCCC4N)c(F)cc3C(N)=O)cc2nc1CC` (stereo not shown) [Example 002-124] it was under 10 nM; in that of `Cc1ccc(-c2cncc(Nc3nc(NC4CCCCC4N)c(F)cc3C(N)=O)c2)o1` (stereo not shown) [Example 002-062], under 10 nM; in that of `CC(C)COCCOc1ccc2cc(Nc3nc(NC4CCCCC4N)c(F)cc3C(N)=O)ccc2n1` (stereo not shown) [Example 002-109], 10 to 50 nM. Still for that read-out and setting: in the case of `NC(=O)c1cc(F)c(N[C@@H]2CCCC[C@@H]2N)nc1Nc1cc(N2CCOCC2)nc2[nH]ccc12` (relative stereo) [Example 004-066, 6-(cis-2-aminocyclohexylamino)-5-fluoro-2-((6-morpholino-1H-pyrrolo[2,3-b]pyridin-4-yl)-amino)nicotinamide] it was under 10 nM; in that of `NC(=O)c1cc(F)c(N[C@@H]2CCCC[C@@H]2N)nc1Nc1cc(-n2nccn2)nc2[nH]ccc12` (relative stereo) [Example 004-067, 2-((6-(2H-1,2,3-triazol-2-yl)-1H-pyrrolo[2,3-b]pyridin-4-yl)amino)-6-(cis-2-aminocyclohexylamino)-5-fluoronicotinamide], under 10 nM. `NC(=O)c1cc(F)c(N[C@@H]2CCCC[C@@H]2N)nc1Nc1cnc(N2CCOCC2)c(-n2cccn2)c1` [Example 006-527, 6-(((1R,2S)-2-aminocyclohexyl)amino)-5-fluoro-2-((6-morpholino-5-(1H-pyrazol-1-yl)pyridin-3-yl)amino)nicotinamide]: the 50% inhibitory concentration (IC50) was in the range of 50 to 100 nM. Take `CNc1nc(Nc2ccc3ncccc3c2)c(C(N)=O)cc1F` [Example 012-022]: the 50% inhibitory concentration (IC50) lay in the range of 100 to 1000 nM. `COCCOc1nccc2c(Nc3nc(NC4CCCCC4N)c(F)cc3C(N)=O)cccc12` (stereo not shown) [Example 002-102]: the IC50 fell in the range of 10 to 50 nM.

Staying with this experiment, now noted: read-out: Syk-inhibitory activity (IC50).
For the compound `CNc1nc(Nc2cc(OC)cc(OC)c2)c(C(N)=O)cc1F` [Example 23, 2-(3,5-dimethoxyphenylamino)-5-fluoro-6-(methylamino)nicotinamide], the IC50 was at most 1000 nM. Take `COc1cc(Nc2nc(NCC3CC3)c(F)cc2C(N)=O)cc(OC)c1` [Example 16-8, 6-((cyclopropylmethyl)amino)-2-((3,5-dimethoxyphenyl)amino)-5-fluoronicotinamide]: the IC50 is at most 1000 nM. Take `CC(=O)Nc1cccc(Nc2nc(NCCN)c(F)cc2C(N)=O)c1` [Example 6-24, 2-((3-acetylaminophenyl)amino)-6-((2-aminoethyl)amino)-5-fluoronicotinamide]: the concentration for half-maximal inhibition (IC50) was at most 1000 nM. On the same count and under the same terms, in the case of `COc1ccc(Nc2nc(N[C@@H]3CCCC[C@@H]3N)c(F)cc2C(N)=O)c2cccnc12` (relative stereo) [Example 6-67, 6-(cis-2-aminocyclohexylamino)-5-fluoro-2-((8-methoxyquinolin-5-yl)amino)nicotinamide] it was at most 1000 nM.
